Experimental data as given in US10613091B2, “Methods of developing a prognosis for pancreatic cancer and predicting responsiveness to cancer therapeutics” (DUKE UNIVERSITY, priority 2011, dated 2020).

Tested on: pancreatic adenocarcinoma
Test: Overall survival (OS) by baseline plasma analytes, CALGB 80303 gemcitabine +/- bevacizumab
Format: in vivo, human
Description: Eligibility of patients evaluated in this correlative analysis was described previously (Kindler et al., J Clin Oncol 2010 28(22):3617-3622). Briefly, eligible patients had histologically- or cytologically-confirmed pancreatic adenocarcinoma not amenable to curative surgery. Measurable disease was not required. Prior chemotherapy for metastatic disease was not permitted. […] Prior radiation was allowed if it was completed at least 4 weeks prior to enrollment and there was disease outside the radiation port. Patients were required to be at least 18 years of age and have a life expectancy of at least 12 weeks. Written informed consent was obtained from all patients participating in this correlative analysis.
Gemcitabine (1,000 mg/m^2) was administered intravenously over 30 minutes on days 1, 8, and 15 of a 28-day cycle. […]
Patterns of expression were analyzed at baseline and were correlated with overall survival (OS) and progression free survival (PFS) using univariate Cox proportional hazard regression models and multivariate Cox models with leave-one-out cross validation. Spearman's rank correlation coefficients were calculated for all pairs of analytes. […]
The primary endpoint of interest will be overall survival (OS) with correlation to the blood analytes; however, progression-free survival (PFS) was evaluated. […]

## bevacizumab: monoclonal antibody against VEGF
VEGF-D above Q1, more than 1092.35 pg/mL, p=0.035
  benefit from bevacizumab (overall survival): predicted for lack of benefit
VEGF-D below Q1, less than 1092.35 pg/mL, p=0.033
  benefit from bevacizumab (overall survival): predicted for benefit
